By melting point is commonly meant the temperature, or range, at which the solid turns liquid.

`CC(C)c1nc2c(c(-c3ccc(F)cc3)c1/C=C/[C@@H](O)C[C@@H](O)CC(=O)O)CCCN2S(C)(=O)=O` [Example 22, (E)-(3R,5S)-7-[4-(4-Fluorophenyl)-2-isopropyl-8-methanesulfonyl-5,6,7,8-tetrahydro-[1,8]naphthyridin-3-yl]-3,5-dihydroxyhept-6-enoic Acid] gave a melting point of 184 to 186 °C.

The record behind these values is patent US7420059B2, “HMG-CoA reductase inhibitors and method” (Bristol-Myers Squibb Company, priority 2003, dated 2008).
